Values joined by “and” are separate entries in the source; they are usually repeats but may differ in a detail not shown here. Equal values may be shown once. Read-outs that look alike come from different tables or passages of the source.
Legend:
[1] = Pharmacokinetic study in cannulated male Sprague-Dawley rats (serum and urine, HPLC); type: in vivo, rat; settings: for CL renal: serum and urine; for AUC: n = 4 (abstract); for bioavailability: read-out: Bioavailability (F%); for AUC(0-inf): n = 4; for Cumulative amount excreted in urine: over 72 h; for CLhepatic: CLtotal − CLrenal
Excerpt: The HPLC system used was a Shimadzu HPLC (Kyoto, Japan), consisting of two LC-10A pumps, a SIL-10AF autoinjector, a SPD-M10A photodiode array detector, and a SCL-10A system controller. Data collection and integration were achieved using Shimadzu EZ Start Class VP (version 7.4) software. A Phenomenex Luna C18(2) (5 μm, 250 × 4.60 mm) column was used. The mobile phase consisted of acetonitrile and water (62 : 38 v/v) that were filtered and degassed under reduced pressure prior to use. Pinosylvin was used as the internal standard. […] Ultraviolet detection was carried out at 327 nm. […] The bias of the assay was <15% and was within 13% at the LOQ [9].
Male Sprague-Dawley rats (≈200 g) were obtained from Simonsen Laboratories (Gilroy, CA, USA) and allowed food (Purina Rat Chow 5001) and water ad libitum upon arrival to the vivarium. Rats were housed in a temperature- and humidity-controlled facility with a 12 h light/dark cycle. Prior to the first day of the pharmacokinetic experiment, the rats were anesthetized using isoflurane (IsoFlo, Abbott Laboratories, Abbot Park, IL, USA) coupled with an oxygen regulator, and monitored by pedal reflex and respiration rate to maintain a surgical plane of anesthesia. The right jugular veins of the rats were cannulated with sterile silastic cannulas (Dow Corning, Midland, MI, USA). After cannulation, Intramedic PE-50 polyethylene tubing (Becton, Dickinson and Company, Franklin Lakes, NJ, USA) was exposed through the dorsal skin. The cannulas were flushed with nonheparinized 0.9% sterile saline solution. The animals were placed in metabolic cages to recover and fasted overnight.
No pharmacokinetics studies are reported in the literature for 3-methoxypterostilbene. Despite the paucity of 3-methoxypterostilbene pharmacokinetic studies in the literature, studies on other stilbenes have reported intravenous (IV) dosage ranges from 10 to 20 mg/kg and from 50 to 300 mg//kg for oral (PO) dosage. In keeping with the literature, doses of 10 mg/kg IV and 100 mg/kg PO were chosen.
Male Sprague-Dawley rats (n = 8, average weight 200 g) were cannulated as described in the Animals and Surgical Procedures section. The animals were placed in metabolic cages following surgery where they were recovered overnight and fasted for 12 h prior to dosing. On the day of the experiment, the animals were dosed with 3-methoxypterostilbene in PEG 400 either IV (10 mg/kg, n = 4) or PO (100 mg/kg, n = 4). After dosing, a series of whole blood samples (0.5 mL) were collected at 0, 1, and 15 min, and 0.5, 1, 2, 4, 6, 12, 24, 48, and 72 h and 0, 0.25, 0.5, 1, 2, 4, 6, 12, 24, 48, and 72 h for IV and PO dosed rats, respectively. The cannulas were flushed with 0.5 mL 0.9% nonheparinized saline solution after each sample collection. The samples were collected into regular 2.0 mL Eppendorf tubes, centrifuged at 10,000 rpm for 5 min (Beckman Microfuge centrifuge, Beckman Coulter Inc., Fullerton, CA, USA), and the serum was collected. The serum was divided into two 0.1 mL fractions and placed into regular 2.0 mL Eppendorf tubes labeled as free and total serum samples. Samples were stored at −20°C until analyzed. Urine samples were also collected at 0, 2, 6, 12, 24, 48, and 72 h following 3-methoxypterostilbene administration. The volumes of urine produced by the rats were recorded, and two 0.1 mL aliquots were collected into separate prelabeled regular polypropylene microcentrifuge tubes and labeled as free and total urine samples and stored at −20°C until analyzed. At 72 h after dose, the animals were euthanized exsanguinated, and serum was collected.
Serum and urine samples (0.1 mL) were run in duplicate with or without the addition of 20 μL of 500 U/mL β-glucuronidase and incubated in a shaking water bath at 37°C for 2 h to liberate any glucuronide conjugates. The proteins present in the serum samples were precipitated using 1 mL of −20°C acetonitrile. […]

[2] = Antioxidant capacity (inhibition of oxidation of ABTS to ABTS radical cation by metmyoglobin, Cayman kit); type: biochemical; settings: for Antioxidant capacity (Trolox equivalents): n = 4, mean ± SEM
Protocol: The amount of ABTS^∙+ can be monitored spectrophotometrically. The degree of suppression of absorbance caused by the compound of interest is proportional to the concentration of […], which is expressed as Trolox equivalents (μg/mL). […] No additional dilution was employed. To run the assay, 10 μL of sample was combined with 10 μL metmyoglobin and 150 μL chromogen. Then, 40 μL of hydrogen peroxide working solution was added within 1 min to all the samples. The plate was covered and incubated on a shaker for 5 min at room temperature […]), and the absorbance was measured at 750 nm using the Synergy HT multiwell plate reader and Gen5 data analysis software (Biotek Instruments Inc., Winooski, VT, USA). The assay was performed in quadruplet. For more information regarding the assay protocol, please refer to the instructions for the kit (Antioxidant Assay Kit from Cayman Chemical—Cat. no. 709091).

[3] = rat, intravenous 10 mg/kg, mean ± SEM
[4] = rat, oral 100 mg/kg, mean ± SEM
[5] = rat, oral 100 mg/kg, mean ± SEM, 100 mg/kg

COc1cc(/C=C/c2ccc(O)c(OC)c2)cc(OC)c1 [3-methoxypterostilbene, trans-3,3′-5-trimethoxy-4′-hydro-xystilbene]
CL renal ([1]; male, Sprague-Dawley, rat, intravenous 10 mg/kg, mean ± SEM): 0.76 L/h/kg | CL renal ([1]; male, Sprague-Dawley, rat, oral 100 mg/kg, mean ± SEM): 0.01 L/h/kg | AUC ([1]; male, Sprague-Dawley, serum, rat, IV 10 mg/kg, mean ± SEM): 48.1 ± 23.8 µg·h/mL | concentration at 24 h ([1]; male, Sprague-Dawley, serum, rat, IV 10 mg/kg, below detectable concentrations, read-out: Serum concentration after 24 hours): < 0.05 µg/mL | AUC ([1]; male, Sprague-Dawley, serum, rat, PO 100 mg/kg, mean ± SEM): 229 ± 44.6 µg·h/mL | MRT ([1]; male, Sprague-Dawley, serum, rat, intravenous 10 mg/kg, mean ± SEM): 26 ± 15 h | clearance ([1]; male, Sprague-Dawley, serum, rat, intravenous 10 mg/kg, mean ± SEM, read-out: CLtotal (converted)): 47.8 L/h/kg | half-life ([1]; male, Sprague-Dawley, serum, rat, intravenous 10 mg/kg, mean ± SEM, read-out: t 1/2 serum (converted)): 18.9 ± 10.9 h | bioavailability ([1]; male, Sprague-Dawley, serum, rat, intravenous 10 mg/kg): 100% | bioavailability ([1]; male, Sprague-Dawley, serum, rat, oral 100 mg/kg vs 10 mg/kg IV, mean ± SEM): 50.6 ± 10% | MRT ([1]; male, Sprague-Dawley, serum, rat, oral 100 mg/kg, mean ± SEM): 105 ± 13.1 h | half-life ([1]; male, Sprague-Dawley, serum, rat, oral 100 mg/kg, mean ± SEM, read-out: t 1/2 serum (converted)): 73.3 ± 8.91 h | half-life ([1]; male, Sprague-Dawley, urine, rat, intravenous 10 mg/kg, mean ± SEM, read-out: t 1/2 urine (converted)): 9.54 ± 1.51 h | half-life ([1]; male, Sprague-Dawley, urine, rat, oral 100 mg/kg, mean ± SEM, read-out: t 1/2 urine (converted)): 20.6 ± 3.01 h | Tmax ([1]; male, Sprague-Dawley, rat serum, PO 100 mg/kg, average): 0.5 h | AUC(0-inf) ([1]; male, Sprague-Dawley, rat serum, intravenous 10 mg/kg, mean ± SEM): 48.1 ± 23.8 µg·h/mL | AUC(0-inf) ([1]; male, Sprague-Dawley, rat serum, oral 100 mg/kg, mean ± SEM): 229 ± 44.6 µg·h/mL | Cumulative amount excreted in urine ([1]; rat, IV 10 mg/kg (~2 mg per rat)): ~ 98 μg | Cumulative amount excreted in urine ([1]; rat, PO 100 mg/kg (20 mg per rat)): 341 µg | f e (fraction excreted in urine unchanged) [1, 3]: 1.64 ± 0.950% | Vdβ ([1]; rat, intravenous 10 mg/kg, mean ± SEM, 10 mg/kg): 5.11 ± 0.38 L/kg and 5.11 ± 0.380 L/kg | CLhepatic [1, 3]: 47.1 ± 23.3 L/h/kg | CLtotal [1, 4]: 0.480 ± 0.0800 L/h/kg | f e (fraction excreted in urine unchanged) [1, 4]: 1.24 ± 0.160% | Vdβ [1, 5]: 52.0 ± 10.0 L/kg and 52.0 ± 10.5 L/kg | CLhepatic [1, 5]: 0.480 ± 9.0800 L/h/kg and 0.480 ± 0.0800 L/h/kg | Antioxidant activity (in words) ([2]; 1-100 μg/mL): modest concentration-dependent antioxidant activity | Antioxidant capacity (Trolox equivalents) ([2]; at 1 μg/mL in DMSO): 98.6 ± 13.7 μg/mL and 0.394 ± 0.0546 mM | Antioxidant capacity (Trolox equivalents) ([2]; at 100 μg/mL in DMSO): 174 ± 2.70 μg/mL and 0.695 ± 0.0094 mM

Source: PMC3652196, “Pharmacometrics of 3-Methoxypterostilbene: A Component of Traditional Chinese Medicinal Plants” (Evidence-based Complementary and Alternative Medicine : eCAM, 2013)
